This test concerns the target plasmepsin II (Plasmodium falciparum, UniProt P46925). As to the kind of experiment: biochemical. Conditions: Additional Examples table; FRET, pH 5, 37° C., 40 min, substrate 1 μM; read-out: IC50 (nM) on plasmepsin II.
Chain of plasmepsin II (P46925 125-453): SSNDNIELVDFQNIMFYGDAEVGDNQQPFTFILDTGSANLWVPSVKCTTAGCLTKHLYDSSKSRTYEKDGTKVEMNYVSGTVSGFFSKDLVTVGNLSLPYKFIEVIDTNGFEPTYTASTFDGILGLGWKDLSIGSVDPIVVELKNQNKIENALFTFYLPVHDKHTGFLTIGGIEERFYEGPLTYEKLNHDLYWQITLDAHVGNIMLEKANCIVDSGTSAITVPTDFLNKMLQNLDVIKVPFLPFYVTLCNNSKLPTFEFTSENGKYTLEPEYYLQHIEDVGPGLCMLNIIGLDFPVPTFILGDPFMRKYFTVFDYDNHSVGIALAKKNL
As to `CCCCCc1ccc(C(=O)N(Cc2ccc(-c3cccc(C)c3)cc2)C2CCN(Cc3ccccc3)CC2)cc1` [Example 74, N-(1-Benzylpiperidin-4-yl)-N-(3′-methylbiphenyl-4-ylmethyl)-4-pentylbenzamide], the concentration for half-maximal inhibition (IC50) turned out to be 140 nM.

`CCCCCc1ccc(C(=O)N(Cc2ccc(OCc3ccccc3)cc2)[C@H]2CCN(Cc3ccccc3)C2)cc1` [Example 75, N-(4-Benzyloxybenzyl)-N-((3S)-1-benzylpyrrolidin-3-yl)-4-pentylbenzamide]: the IC50 was determined as 141 nM.

As to `CCCCCc1ccc(C(=O)N(Cc2ccc(-c3ccccc3F)cc2)C2CCN(Cc3ccc(O)cc3)CC2)cc1` [Example 76, N-(2′-Fluorobiphenyl-4-ylmethyl)-N-[1-(4-hydroxybenzyl)piperidin-4-yl]-4-pentylbenzamide], the IC50 came to 152 nM.

Take `CCCCCc1ccc(C(=O)N(Cc2ccc(C(F)(F)F)c(F)c2)C2CCN(Cc3ccccc3)CC2)cc1` [Example 77, N-(1-Benzylpiperidin-4-yl)-N-(3-fluoro-4-trifluoromethylbenzyl)-4-pentylbenzamide]: the IC50 was 153 nM.

Regarding `CCCCCc1ccc(C(=O)N(Cc2ccc(-c3ccccn3)cc2)C2CCN(Cc3ccoc3)CC2)cc1` [Example 78, N-(1-Furan-3-ylmethylpiperidin-4-yl)-4-pentyl-N-(4-pyridin-2-yl-benzyl)benzamide], the IC50 came out at 168 nM.

As to `CCCCCc1ccc(C(=O)N(Cc2ccc(-c3ccccn3)cc2)C2CCN(Cc3ccncc3)CC2)cc1` [Example 79, 4-Pentyl-N-(4-pyridin-2-yl-benzyl)-N-(1-pyridin-4-ylmethylpiperidin-4-yl)benzamide], the half-inhibitory concentration (IC50) worked out at 176 nM.

Regarding `CCCCCc1ccc(C(=O)N(Cc2ccc(OC(F)(F)F)cc2)C2CCN(Cc3ccccc3)CC2)cc1` [Example 80, N-(1-Benzylpiperidin-4-yl)-4-pentyl-N-(4-trifluoromethoxybenzyl)benzamide], the 50% inhibitory concentration (IC50) came to 187 nM.

`CCCCCc1ccc(C(=O)N(Cc2ccc(-c3ccccc3)cc2)C2CCN(Cc3ccc(O)cc3)CC2)cc1` [Example 81, N-Biphenyl-4-ylmethyl-N-[1-(4-hydroxybenzyl)piperidin-4-yl]-4-pentylbenzamide]: the half-inhibitory concentration (IC50) came to 192 nM.

`CCCCCc1ccc(C(=O)N(Cc2ccc(-c3ccccc3)cc2)C2CCN(CC3=CCCCC3)CC2)cc1` [Example 82, N-Biphenyl-4-ylmethyl-N-(1-cyclohex-1-enylmethylpiperidin-4-yl)-4-pentylbenzamide]: the IC50 worked out at 196 nM.

For the compound `CCCCCc1ccc(C(=O)N(Cc2ccc(OC(C)C)cc2)C2CCN(Cc3ccccc3)CC2)cc1` [Example 83, N-(1-Benzylpiperidin-4-yl)-N-(4-isopropoxybenzyl)-4-pentylbenzamide], the concentration for half-maximal inhibition (IC50) is 204 nM.

With `CCCCCc1ccc(C(=O)N(Cc2ccc(-c3ccccn3)cc2)C2CCN(Cc3ccccc3)CC2)cc1` [Example 84, N-(1-Benzylpiperidin-4-yl)-4-pentyl-N-(4-pyridin-2-yl-benzyl)benzamide], the 50% inhibitory concentration (IC50) stood at 209 nM.

Turning to `CCCCCc1ccc(C(=O)N(Cc2ccc(-c3cccnc3)cc2)C2CCN(Cc3cc4ccccc4o3)CC2)cc1` [Example 85, N-(1-Benzofuran-2-ylmethyl-piperidin-4-yl)-4-pentyl-N-(4-pyridin-3-yl-benzyl)benzamide], the IC50 stood at 211 nM.

For the compound `CCCCCc1ccc(C(=O)N(Cc2ccc3ccccc3c2)C2CCN(Cc3ccccc3)CC2)cc1` [Example 86, N-(1-Benzylpiperidin-4-yl)-N-naphthalen-2-ylmethyl-4-pentylbenzamide], the IC50 is 248 nM.

Take `CCCCCc1ccc(C(=O)N(Cc2ccc(-c3cncnc3)cc2)C2CCN(Cc3ccccc3)CC2)cc1` [Example 87, N-(1-Benzylpiperidin-4-yl)-4-pentyl-N-(4-pyrimidin-5-ylbenzyl)benzamide]: the half-inhibitory concentration (IC50) came to 250 nM.

In the case of `CCCCCc1ccc(CN(Cc2ccc(-c3ccc(OC)c(OC)c3)cc2)C2CCN(Cc3ccccc3)CC2)cc1` [Example 88, (1-Benzylpiperidin-4-yl)-(3′,4′-dimethoxybiphenyl-4-ylmethyl)-(4-pentyl-benzyl)amine], the half-maximal inhibitory concentration (IC50) was determined as 255 nM.

Turning to `CCCCCc1ccc(C(=O)N(Cc2ccc(-c3ccc(F)cc3)cc2)C2CCN(Cc3ccccc3)CC2)cc1` [Example 89, N-(1-Benzylpiperidin-4-yl)-N-(4′-fluorobiphenyl-4-ylmethyl)-4-pentylbenzamide], the IC50 was 260 nM.

Consider `C=CCOc1ccc(CN(C(=O)c2ccc(CCCCC)cc2)C2CCN(Cc3ccccc3)CC2)cc1` [Example 90, N-(4-Allyloxybenzyl)-N-(1-benzylpiperidin-4-yl)-4-pentylbenzamide], for which the IC50 worked out at 270 nM.

As to `CCCCCc1ccc(CN(Cc2ccc(-c3ccc4c(c3)OCO4)cc2)C2CCN(Cc3ccccc3)CC2)cc1` [Example 91, (4-Benzo[1,3]dioxol-5-yl-benzyl)-(1-benzylpiperidin-4-yl)-(4-pentyl-benzyl)amine], the IC50 came to 275 nM.

As for `CCCCCc1ccc(C(=O)N(Cc2ccc(OCc3ccccc3)cc2O)C2CCN(Cc3ccccc3)CC2)cc1` [Example 92, N-(4-Benzyloxy-2-hydroxy-benzyl)-N-(1-benzylpiperidin-4-yl)-4-pentylbenzamide], the IC50 was determined as 281 nM.

`CCCCCc1ccc(C(=O)N(Cc2ccc3c(c2)OCO3)C2CCN(Cc3ccccc3)CC2)cc1` [Example 93, N-Benzo[1,3]dioxol-5-ylmethyl-N-(1-benzylpiperidin-4-yl)-4-pentyl-benzamide]: the IC50 worked out at 284 nM.

Turning to `CCCCCc1ccc(C(=O)N(Cc2ccc(OCC)cc2)C2CCN(Cc3ccccc3)CC2)cc1` [Example 94, N-(1-Benzylpiperidin-4-yl)-N-(4-ethoxybenzyl)-4-pentylbenzamide], the IC50 stood at 284 nM.

Regarding `CCCCCc1ccc(CN(Cc2ccc(-c3ccc(C#N)cc3)cc2)C2CCN(Cc3ccccc3)CC2)cc1` [Example 95, 4′-{[(1-Benzylpiperidin-4-yl)-(4-pentylbenzyl)amino]methyl}-biphenyl-4-carbonitrile], the IC50 was 294 nM.

For the compound `CCCCCc1ccc(C(=O)N(Cc2ccc(-c3ccccc3)cc2)C2CCN(Cc3cccc(C(F)(F)F)c3)CC2)cc1` [Example 96, N-Biphenyl-4-ylmethyl-4-pentyl-N-[1-(3-trifluoromethylbenzyl)piperidin-4-yl]benzamide], the IC50 came to 319 nM.

Consider `CCCCCCc1ccc(C(=O)N(Cc2ccc(-c3ccccc3)cc2)C2CCN(Cc3ccccc3)CC2)cc1` [Example 97, N-(1-Benzylpiperidin-4-yl)-N-biphenyl-4-ylmethyl-4-hexyl-benzamide], for which the IC50 came to 322 nM.

Take `CCCCCc1ccc(C(=O)N(Cc2ccc(OC)cc2)C2CCN(Cc3ccccc3)CC2)cc1` [Example 98, N-(1-Benzylpiperidin-4-yl)-N-(4-methoxybenzyl)-4-pentyl-benzamide]: the IC50 was found to be 322 nM.

Take `CCCCCc1ccc(C(=O)N(Cc2ccc(-c3ccccc3)cc2)C2CCN(Cc3ccccc3O)CC2)cc1` [Example 99, N-Biphenyl-4-ylmethyl-N-[1-(2-hydroxybenzyl)piperidin-4-yl]-4-pentylbenzamide]: the half-maximal inhibitory concentration (IC50) came out at 361 nM.

Regarding `CCCCC[C@H]1CC[C@H](C(=O)N(Cc2ccc(-c3ccccc3)cc2)C2CCN(Cc3ccccc3)CC2)CC1` [Example 100, trans-4-Pentylcyclohexane carboxylic acid(1-benzylpiperidin-4-yl)-biphenyl-4-ylmethyl amide], the IC50 turned out to be 374 nM.

Turning to `CCCCCc1ccc(C(=O)N(Cc2ccc(-c3ccccc3)cc2)C2CCN(Cc3ccc(F)cc3)CC2)cc1` [Example 101, N-Biphenyl-4-ylmethyl-N-[1-(4-fluorobenzyl)piperidin-4-yl]-4-pentylbenzamide], the IC50 was 385 nM.

On to `CCCCCc1ccc(CN(Cc2ccc(OCc3ccc(F)cc3)cc2)C2CCN(Cc3ccccc3)CC2)cc1` [Example 102, (1-Benzylpiperidin-4-yl)-[4-(4-fluorobenzyloxy)benzyl]-(4-pentylbenzyl)amine], for which the IC50 amounted to 414 nM.

Regarding `CCCCCc1ccc(CN(Cc2ccc(OCc3ccccc3)cc2)C2CCN(Cc3ccccc3)CC2)cc1` [Example 103, (4-Benzyloxybenzyl)-(1-benzyl-piperidin-4-yl)-(4-pentylbenzyl)amine], the half-inhibitory concentration (IC50) was 431 nM.

Take `CCCCCc1ccc(C(=O)N(Cc2ccc(-c3ccc(N(C)C)cc3)cc2)C2CCN(Cc3ccccc3)CC2)cc1` [Example 106, N-(1-Benzylpiperidin-4-yl)-N-(4′-dimethylaminobiphenyl-4-ylmethyl)-4-pentylbenzamide]: the half-inhibitory concentration (IC50) is 461 nM.

With `CCCCCc1ccc(CN(Cc2ccc(-c3cncnc3)cc2)C2CCN(Cc3ccccc3)CC2)cc1` [Example 107, (1-Benzylpiperidin-4-yl)-(4-pentyl-benzyl)-(4-pyrimidin-5-ylbenzyl)amine], the half-inhibitory concentration (IC50) worked out at 618 nM.

With `CCCCCc1ccc(CN(Cc2ccc(-c3cccc(C(F)(F)F)c3)cc2)C2CCN(Cc3ccccc3)CC2)cc1` [Example 108, (1-Benzylpiperidin-4-yl)-(4-pentyl-benzyl)-(3′-trifluoromethyl-biphenyl-4-ylmethyl)amine], the IC50 was found to be 634 nM.

`CCCCCc1ccc(CN(Cc2ccc(-c3ccccc3F)cc2)C2CCN(Cc3ccccc3)CC2)cc1` [Example 109, (1-Benzylpiperidin-4-yl)-(2′-fluoro-biphenyl-4-ylmethyl)-(4-pentyl-benzyl)amine]: the IC50 was found to be 656 nM.

On to `CCCCCc1ccc(C(=O)N(Cc2ccc(-c3ccccc3)cc2)C2CCN(Cc3ccc(OC(F)(F)F)cc3)CC2)cc1` [Example 110, N-Biphenyl-4-ylmethyl-4-pentyl-N-[1-(4-trifluoromethoxybenzyl)piperidin-4-yl]benzamide], for which the IC50 is 692 nM.

Take `CCCCCc1ccc(C(=O)N(C2CCN(Cc3ccccc3)CC2)[C@H](CO)Cc2ccc(OCc3ccccc3)cc2)cc1` [Example 111, N-[(1S)-2-(4-Benzyloxyphenyl)-1-hydroxymethylethyl]-N-(1-benzyl-piperidin-4-yl)-4-pentylbenzamide]: the IC50 is 749 nM.

In the case of `CCCCCc1ccc(C(=O)N(Cc2ccc(OCc3ccccc3)cc2)C2CCN(CCc3ccccc3)CC2)cc1` [Example 112, N-(4-Benzyloxybenzyl)-4-pentyl-N-(1-phenethylpiperidin-4-yl)benzamide], the IC50 came out at 761 nM.

In general, IC50 refers to the concentration at which inhibition is half-maximal.

Source of the values: patent US20040102431A1, “Substituted amino-aza-cycloalkanes useful against malaria” (priority 2000, published 2004).
